Source: patent publication US20250311727A1, “SUBSTITUTED 2-AMINOAZINES AND SALTS THEREOF, AND USE THEREOF AS HERBICIDAL ACTIVE SUBSTANCES” (BAYER AKTIENGESELLSCHAFT, priority 2022, published 2025)

Assays:
Assay type in all cases: in vivo
Veronica persica [1] = experiment: Pre-emergence herbicide efficacy at 320 g/ha, VERPE; details: scored visually after about 3 weeks vs untreated controls, 100% = plants have died
How it was run: (§1)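 Weed seeds were sown in sandy loam, covered with soil, and the soil surface was sprayed with WP- or EC-formulated compound as aqueous suspension/emulsion plus 0.5% additive at 600 L/ha water. Pots stood in a greenhouse; about 3 weeks later efficacy was scored visually as % versus untreated controls (100% = plants dead, 0% = like control).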

Amaranthus retroflexus [2] = experiment: Post-emergence herbicidal efficacy at 80 g/ha, AMARE; details: rated visually after about 3 weeks vs untreated controls, 100% = plants have died
How it was run: (§2)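 Weeds grown from seed in sandy loam under controlled greenhouse conditions were sprayed on green parts at the one-leaf stage, 2 to 3 weeks after sowing. WP or EC formulations were applied in water with 0.5% additive at 600 l/ha. Activity was scored visually about 3 weeks later against untreated controls (0% = like control, 100% = dead).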

Amaranthus retroflexus [3] = experiment: Post-emergence herbicidal efficacy at 320 g/ha, AMARE; details: rated visually after about 3 weeks vs untreated controls, 100% = plants have died
How it was run: (§3)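 Visual rating about 3 weeks after treatment, scored against untreated plants on a scale from 0% (no effect) to 100% (dead). Application was foliar, as aqueous WP or EC suspension or emulsion with 0.5% additive at 600 L/ha, on one-leaf-stage greenhouse plants 2–3 weeks old, grown in sandy loam.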

Poa annua [4] = experiment: Post-emergence herbicidal efficacy at 320 g/ha, POAAN; details: rated visually after about 3 weeks vs untreated controls, 100% = plants have died
How it was run: as §3

Setaria viridis [5] = experiment: Pre-emergence herbicide efficacy at 80 g/ha, SETVI
From the text: (§4) Unwanted plants/weeds: • ABUTH: Abutilon theophrasti • ALOMY: Alopecurus myosuroides • AMARE: Amaranthus retroflexus • DIGSA: Digitaria sanguinalis • ECHCG: Echinochloa crus-galli • KCHSC: Kochia scoparia • LOLRI: Lolium rigidum • MATIN: Matricaria inodora • POAAN: Poa annua • POLCO: Polygonum convolvulus • SETVI: Setaria viridis • STEME: Stellaria media • VERPE: Veronica persica • VIOTR: Viola tricolor A. Post-Emergence Herbicidal Efficacy at 320 g/ha
(§5) Seeds of monocotyledonous and dicotyledonous weed plants and crop plants were placed in plastic or organic planting pots and covered with soil. The compounds of the invention, formulated in the form of wettable powders (WP) or as emulsion concentrates (EC), were then applied to the surface of the covering soil as aqueous suspension or emulsion with addition of 0.5% additive at a water application rate equivalent to 600 l/ha. After the treatment, the pots were placed in a greenhouse and kept under good growth conditions for the test plants. After about 3 weeks, the efficacy of the preparations was scored visually in comparison with untreated controls as percentages. For example, 100% activity=the plants have died, 0% activity=like control plants.
(§6) Tables D1 to D12 below show the effects of selected compounds of the general formula (I) according to Table 1 on various harmful plants and an application rate corresponding to 80 g/ha, which were obtained by the experimental procedure mentioned above.

Setaria viridis [6] = experiment: Post-emergence herbicidal efficacy at 80 g/ha, SETVI; details: rated visually after about 3 weeks vs untreated controls, 100% = plants have died
From the text: as §4
(§7) Seeds of monocotyledonous and dicotyledonous weeds and crop plants were placed in sandy loam in plastic or organic planting pots, covered with soil and cultivated in a greenhouse under controlled growth conditions. 2 to 3 weeks after sowing, the test plants were treated at the one-leaf stage. The compounds of the invention, formulated in the form of wettable powders (WP) or as emulsion concentrates (EC), were then sprayed onto the green parts of the plants as aqueous suspension or emulsion with addition of 0.5% additive at a water application rate of 600 l/ha (converted). After the test plants had been kept in the greenhouse under optimum growth conditions for about 3 weeks, the activity of the preparations was rated visually in comparison to untreated controls. For example, 100% activity=the plants have died, 0% activity=like control plants.
(§8) Tables B1 to B11 below show the effects of selected compounds of the general formula (I) according to Table 1 on various harmful plants and an application rate corresponding to 80 g/ha, which were obtained by the experimental procedure mentioned above.

Veronica persica [7] = experiment: Post-emergence herbicidal efficacy at 80 g/ha, VERPE; details: rated visually after about 3 weeks vs untreated controls, 100% = plants have died
How it was run: as §2

Echinochloa crus-galli [8] = experiment: Pre-emergence herbicide efficacy at 320 g/ha, ECHCG; details: scored visually after about 3 weeks vs untreated controls, 100% = plants have died
How it was run: as §1

Setaria viridis [9] = experiment: Pre-emergence herbicide efficacy at 320 g/ha, SETVI; details: scored visually after about 3 weeks vs untreated controls, 100% = plants have died
How it was run: as §1

Digitaria sanguinalis [10] = experiment: Pre-emergence herbicide efficacy at 320 g/ha, DIGSA; details: scored visually after about 3 weeks vs untreated controls, 100% = plants have died
How it was run: as §1

Digitaria sanguinalis [11] = experiment: Pre-emergence herbicide efficacy at 80 g/ha, DIGSA; details: scored visually after about 3 weeks vs untreated controls, 100% = plants have died
From the text: as §4, §5, §6

Abutilon theophrasti [12] = experiment: Post-emergence herbicidal efficacy at 320 g/ha, ABUTH; details: rated visually after about 3 weeks vs untreated controls, 100% = plants have died
How it was run: as §3

Viola tricolor [13] = experiment: Post-emergence herbicidal efficacy at 80 g/ha, VIOTR; details: rated visually after about 3 weeks vs untreated controls, 100% = plants have died
From the text: as §4, §7, §8

Amaranthus retroflexus [14] = experiment: Pre-emergence herbicide efficacy at 80 g/ha, AMARE; details: scored visually after about 3 weeks vs untreated controls, 100% = plants have died
How it was run: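 Seeds sown in pots and covered with soil; compounds formulated as WP or EC were sprayed onto the soil surface as aqueous suspension/emulsion with 0.5% additive at 600 l/ha water. Pots kept in greenhouse; after about 3 weeks efficacy scored visually as % versus untreated controls (100% = plants died, 0% = like control).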

Poa annua [15] = experiment: Pre-emergence herbicide efficacy at 320 g/ha, POAAN; details: scored visually after about 3 weeks vs untreated controls, 100% = plants have died
How it was run: as §1

Stellaria media [16] = experiment: Post-emergence herbicidal efficacy at 320 g/ha, STEME; details: rated visually after about 3 weeks vs untreated controls, 100% = plants have died
How it was run: as §3

Echinochloa crus-galli [17] = experiment: Post-emergence herbicidal efficacy at 320 g/ha, ECHCG; details: rated visually after about 3 weeks vs untreated controls, 100% = plants have died
How it was run: as §3

Abutilon theophrasti [18] = experiment: Pre-emergence herbicide efficacy at 320 g/ha, ABUTH; details: scored visually after about 3 weeks vs untreated controls, 100% = plants have died
From the text: as §4
(§9) Seeds of mono- and dicotyledonous weed plants were placed in plastic pots in sandy loam soil (doubly sown with one species each of mono- or dicotyledonous weed plants per pot) and covered with soil. The compounds of the invention, formulated in the form of wettable powders (WP) or as emulsion concentrates (EC), were then applied to the surface of the covering soil as aqueous suspension or emulsion with addition of 0.5% additive at a water application rate of 600 litres per hectare (converted). After the treatment, the pots were placed in a greenhouse and kept under good growth conditions for the test plants. After about 3 weeks, the efficacy of the preparations was scored visually in comparison with untreated controls as percentages.
(§10) For example, 100% activity=the plants have died, 0% activity=like control plants.
(§11) Tables C1 to C12 below show the effects of selected compounds of the general formula (I) according to Table 1 on various harmful plants and at an application rate corresponding to 320 g/ha, which were obtained by the trial procedure specified above.

Veronica persica [19] = experiment: Post-emergence herbicidal efficacy at 320 g/ha, VERPE; details: rated visually after about 3 weeks vs untreated controls, 100% = plants have died
How it was run: as §3

Stellaria media [20] = experiment: Pre-emergence herbicide efficacy at 320 g/ha, STEME; details: scored visually after about 3 weeks vs untreated controls, 100% = plants have died
How it was run: as §1

Viola tricolor [21] = experiment: Pre-emergence herbicide efficacy at 80 g/ha, VIOTR
From the text: as §4, §5, §6

Kochia scoparia [22] = experiment: Post-emergence herbicidal efficacy at 320 g/ha, KCHSC; details: rated visually after about 3 weeks vs untreated controls, 100% = plants have died
How it was run: as §3

Alopecurus myosuroides [23] = experiment: Pre-emergence herbicide efficacy at 320 g/ha, ALOMY; details: scored visually after about 3 weeks vs untreated controls, 100% = plants have died
From the text: as §4, §9, §10, §11

Veronica persica [24] = experiment: Pre-emergence herbicide efficacy at 80 g/ha, VERPE
From the text: as §4, §5, §6

Kochia scoparia [25] = experiment: Post-emergence herbicidal efficacy at 80 g/ha, KCHSC; details: rated visually after about 3 weeks vs untreated controls, 100% = plants have died
How it was run: as §2

Alopecurus myosuroides [26] = experiment: Post-emergence herbicidal efficacy at 320 g/ha, ALOMY; details: rated visually after about 3 weeks vs untreated controls, 100% = plants have died
From the text: as §4
Seeds of mono- and dicotyledonous weed plants were placed in plastic pots in sandy loam soil (doubly sown with in each case one species of mono- or dicotyledonous weed plants per pot), covered with soil and cultivated in a greenhouse under controlled growth conditions. 2 to 3 weeks after sowing, the test plants were treated at the one-leaf stage. The compounds of the invention, formulated in the form of wettable powders (WP) or as emulsion concentrates (EC), were applied to the green parts of the plants as aqueous suspension or emulsion with addition of 0.5% additive at a water application rate equivalent to 600 litres per hectare. After the test plants had been kept in the greenhouse under optimum growth conditions for about 3 weeks, the activity of the preparations was rated visually in comparison to untreated controls.
as §10
Tables A1 to A10 below show the effects of selected compounds of the general formula (I) according to Table 1 on various harmful plants and at an application rate corresponding to 320 g/ha, which were obtained by the trial procedure specified above.

Digitaria sanguinalis [27] = experiment: Post-emergence herbicidal efficacy at 320 g/ha, DIGSA; details: rated visually after about 3 weeks vs untreated controls, 100% = plants have died
How it was run: as §3

Abutilon theophrasti [28] = experiment: Post-emergence herbicidal efficacy at 80 g/ha, ABUTH; details: rated visually after about 3 weeks vs untreated controls, 100% = plants have died
From the text: as §4, §7, §8

Kochia scoparia [29] = experiment: Pre-emergence herbicide efficacy at 320 g/ha, KCHSC; details: scored visually after about 3 weeks vs untreated controls, 100% = plants have died
How it was run: as §1

Amaranthus retroflexus [30] = experiment: Pre-emergence herbicide efficacy at 320 g/ha, AMARE; details: scored visually after about 3 weeks vs untreated controls, 100% = plants have died
How it was run: as §1

Fc1cccc(Nc2ncc(Cl)cn2)c1-c1cc(C(F)F)no1 [Example 1-33]
Pre-emergence efficacy at 320 g/ha against VERPE in % (Veronica persica [1]): 100%
Post-emergence efficacy at 80 g/ha against AMARE in % (Amaranthus retroflexus [2]): 100%
Post-emergence efficacy at 320 g/ha against AMARE in % (Amaranthus retroflexus [3]): 100%
Post-emergence efficacy at 320 g/ha against POAAN in % (Poa annua [4]): 100%
Pre-emergence efficacy against SETVI (Setaria viridis [5]): 100%
Post-emergence efficacy at 80 g/ha against SETVI in % (Setaria viridis [6]): 100%
Post-emergence efficacy at 80 g/ha against VERPE in % (Veronica persica [7]): 100%
Pre-emergence efficacy at 320 g/ha against ECHCG in % (Echinochloa crus-galli [8]): 100%
Pre-emergence efficacy at 320 g/ha against SETVI in % (Setaria viridis [9]): 100%
Pre-emergence efficacy at 320 g/ha against DIGSA in % (Digitaria sanguinalis [10]): 100%
Pre-emergence efficacy at 80 g/ha against DIGSA in % (Digitaria sanguinalis [11]): 90%
Post-emergence efficacy at 320 g/ha against ABUTH in % (Abutilon theophrasti [12]): 100%
Post-emergence efficacy at 80 g/ha against VIOTR in % (Viola tricolor [13]): 100%
Pre-emergence efficacy at 80 g/ha against AMARE in % (Amaranthus retroflexus [14]): 100%
Pre-emergence efficacy at 320 g/ha against POAAN in % (Poa annua [15]): 100%
Post-emergence efficacy at 320 g/ha against STEME in % (Stellaria media [16]): 100%
Post-emergence efficacy at 320 g/ha against ECHCG in % (Echinochloa crus-galli [17]): 100%
Pre-emergence efficacy at 320 g/ha against ABUTH in % (Abutilon theophrasti [18]): 100%
Post-emergence efficacy at 320 g/ha against VERPE in % (Veronica persica [19]): 100%
Pre-emergence efficacy at 320 g/ha against STEME in % (Stellaria media [20]): 100%
Pre-emergence efficacy against VIOTR (Viola tricolor [21]): 90%
Post-emergence efficacy at 320 g/ha against KCHSC in % (Kochia scoparia [22]): 100%
Pre-emergence efficacy at 320 g/ha against ALOMY in % (Alopecurus myosuroides [23]): 100%
Pre-emergence efficacy against VERPE (Veronica persica [24]): 90%
Post-emergence efficacy at 80 g/ha against KCHSC in % (Kochia scoparia [25]): 100%
Post-emergence efficacy at 320 g/ha against ALOMY in % (Alopecurus myosuroides [26]): 100%
Post-emergence efficacy at 320 g/ha against DIGSA in % (Digitaria sanguinalis [27]): 100%
Post-emergence efficacy at 80 g/ha against ABUTH in % (Abutilon theophrasti [28]): 80%
Pre-emergence efficacy at 320 g/ha against KCHSC in % (Kochia scoparia [29]): 100%
Pre-emergence efficacy at 320 g/ha against AMARE in % (Amaranthus retroflexus [30]): 100%
